Assay results reported in patent publication US12448383B2, “Compounds and methods for treatment of viral infections” (priority 2022, dated 2025).
Like-named read-outs stand apart in the source and are kept apart here.

Key:
[1] = system: SARS Coronavirus 2 recombinant with NanoLuc (SARS-CoV2-NLuc) in A549-hACE2 cells; experiment: organism not typed; assay type: cell-based
[2] = system: Respiratory syncytial virus recombinant with luciferase (RSV-Luc5) in Normal Human Bronchial Epithelial (NHBE) cells; experiment: microbe, parasite or virus in culture; assay type: cell-based
[3] = CC50 MT4 cytotoxicity (Cell-Titer Glo); assay type: cell-based; conditions: human
In short: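 Uninfected MT-4 and HEp-2 cells cultured 4-5 days at 37° C with 3-fold serially diluted compound (15 nM to 100,000 nM). Viability read by Cell-Titer Glo luminescence; untreated and 2 μM puromycin wells set 100% and 0%. CC50 from non-linear regression as concentration reducing viability by 50%.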

[4] = GI S9 stability - no PMSF; assay type: in vitro ADME; conditions: pH 7.4; human intestinal S9, PMSF-free; read-out: GIS9-HUMAN-NoPMSF T1/2
In short: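 Compounds were incubated at 2 μM with PMSF-free intestinal S9 (1 mg/mL protein) in 100 mM PBS, pH 7.4, sampling at 6 time points over 120 min. Parent disappearance and formation of the nucleoside metabolite Reference Compound A were quantified by LC-MS (Q-Exactive) using analyte/internal standard peak area ratios.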

[5] = Plasma stability; assay type: in vitro ADME; parameters: unit not given here; conditions: 37° C., 2 μM substrate
In short: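 Reaction mixture was sampled at 0.05, 0.5, 1, 2, 3 and 4 hr into quench solution containing internal standard, then centrifuged and diluted with water. Remaining analyte was measured by LC-MS on a Q-Exactive using a formic acid/acetonitrile gradient, with 5 ppm mass tolerance.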

[6] = system: Caco-2 cells (clone C2BBe1); experiment: CACO-2 permeability; assay type: in vitro ADME; parameters: unit not given here; conditions: for DM Caco2 A to B: apical to basolateral, donor pH 6.5, receiver pH 7.4; for DM Caco2 B to A: basolateral to apical
In short: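 Caco-2 monolayers grown 21 days on collagen-coated transwells and checked for integrity by TEER. Donor buffer was HBSS/HEPES/glucose pH 6.5 with 200 μM BNPP; receiver was pH 7.4 with BSA. Compounds were dosed apically or basolaterally for A-to-B and B-to-A transport, with receiver sampling at 1 and 2 h, LC-MS/MS analysis and percent recovery.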

[7] = Stability in pH2 buffered solution; assay type: physicochemical; conditions: pH2 phosphate buffer, 40° C., 24 h; Table N2
Method: (§1) Example N: Stability in p112 and p117 Buffered Solutions
(§2) The aqueous stability of compounds over a time of 24 hours at 40° C. was assessed. Stability was determined in 50 mM phosphate buffered solutions at both pH2 and pH7, with 150 mM NaCl (to achieve isotonicity). 3-5 mg of solid compounds were added to 7 mL scintillation vials. Acetonitrile was added to each vial to produce a 1 mg/mL stock solution. Stock solutions were diluted to 50 μg/mL in either pH2 or pH7 phosphate buffer, to a volume of 1 mL. For each compound and pH condition, 50 μg/mL samples were prepped in duplicate. One sample was placed on the UPLC tray at 40° C. for analysis, and the second sample was placed in a 40° C. oven for storage. Sample preps for each compound were offset by 40 minutes to account for run time on UPLC.
(§3) Concentration timepoints were measured at 0, 3, 6, 9, and 12 hrs. After 24 hrs, samples in the 40° C. oven were removed and analyzed by UPLC.
(§4) In FIG. 2, % AN stands for % area normalized. That is, % AN is the area of the compound peak relative to the sum of areas of all the peaks in the UPLC chromatogram. For example, if there were two peaks, compound peak with an area of 9 and another peak with an area of 1, then the % AN of the compound peak would be 90%.

[8] = Stability in pH7 buffered solution; assay type: physicochemical; conditions: pH7 phosphate buffer, 40° C., Table N2
Method: as §1, §2, §3, §4

[9] = system: Respiratory syncytial virus recombinant with luciferase (RSV-Luc5) in HEp-2 cells; experiment: microbe, parasite or virus in culture; assay type: cell-based; conditions: human respiratory syncytial virus, HEp-2, read-out: EC50 RSVFluc-Hep2 384 V2
[10] = physchem
[11] = A549, read-out: EC50 SARS CoV2 NanoLuc A549 384
[12] = read-out: EC50 RSVFluc-NHBE 384 V2

CCC(C)(C)OC(=O)OC[C@H]1O[C@@](C#N)(c2ccc3c(N)ncnn23)[C@H](OC(=O)OC(C)(C)CC)[C@@H]1OC(=O)OC(C)(C)CC [Compound 60, (2R,3R,4R,5R)-2-(4-aminopyrrolo[2,1-f][1,2,4]triazin-7-yl)-2-cyano-5-((((tert-pentyloxy)carbonyl)oxy)methyl)tetrahydrofuran-3,4-diyl di-tert-pentyl bis(carbonate)]
EC50 ([1]; 48 h, read-out: SARS-CoV2 EC50): 2680 nM | EC50 ([2]; 72 h, read-out: RSV NHBE EC50): 1580 nM | CC50 ([3]; uninfected MT-4 cells, 4-5 days, read-out: MT4 CC50): 32900 nM | half-life at 2 µM [4]: 44.9 min | STA Human Plasma 37 [5]: 1584 | DM Caco2 A to B [6]: 0.12 | DM Caco2 B to A [6]: 0.32 | pH 2 Stability 24 h % AN [7]: 0 % AN | pH 7 Stability 24 h % AN [8]: 0 % AN

N#C[C@@]1(c2ccc3c(N)ncnn23)O[C@H](COC(=O)OCC2(c3ccccc3)CC2)[C@@H](O)[C@H]1O [Compound 116, ((2R,3S,4R,5R)-5-(4-aminopyrrolo[2,1-f][1,2,4]triazin-7-yl)-5-cyano-3,4-dihydroxytetrahydrofuran-2-yl)methyl ((1-phenylcyclopropyl)methyl) carbonate]
EC50 [9]: 321 nM | EC50 [1, 11]: 822 nM | EC50 [2, 12]: 864 nM | CC50 [3]: > 50000 nM | half-life at 2 µM [4]: 0.63 min | STA Human Plasma 37 [5]: 26.4 | DM Caco2 A to B [6]: 4.18 | DM Caco2 B to A [6]: 17.53 | logD [10]: 2.1

CC1(C)CC(COC(=O)OC[C@H]2O[C@@](C#N)(c3ccc4c(N)ncnn34)[C@H](O)[C@@H]2O)C1 [Compound 117, ((2R,3S,4R,5R)-5-(4-aminopyrrolo[2,1-f][1,2,4]triazin-7-yl)-5-cyano-3,4-dihydroxytetrahydrofuran-2-yl)methyl ((3,3-dimethylcyclobutyl)methyl) carbonate]
EC50 [9]: 494 nM | EC50 [1, 11]: 778 nM | EC50 [2, 12]: 1380 nM | CC50 [3]: > 50000 nM | half-life at 2 µM [4]: 0.616 min | STA Human Plasma 37 [5]: 86 | DM Caco2 A to B [6]: 6.18 | DM Caco2 B to A [6]: 10.53 | logD [10]: 2.3

N#CC1(COC(=O)OC[C@H]2O[C@@](C#N)(c3ccc4c(N)ncnn34)[C@H](O)[C@@H]2O)CC1 [Compound 118, ((2R,3S,4R,5R)-5-(4-aminopyrrolo[2,1-f][1,2,4]triazin-7-yl)-5-cyano-3,4-dihydroxytetrahydrofuran-2-yl)methyl ((l-cyanocyclopropyl)methyl) carbonate]
EC50 [9]: 1760 nM | EC50 [1, 11]: 6800 nM | EC50 [2, 12]: 1820 nM | CC50 [3]: > 50000 nM | half-life at 2 µM [4]: 4.12 min | STA Human Plasma 37 [5]: 59.4 | DM Caco2 A to B [6]: 0.07 | DM Caco2 B to A [6]: 1.67 | logD [10]: 0.7

N#CCC1(COC(=O)OC[C@H]2O[C@@](C#N)(c3ccc4c(N)ncnn34)[C@H](O)[C@@H]2O)CC1 [Compound 119, ((2R,3S,4R,5R)-5-(4-aminopyrrolo[2,1-f][1,2,4]triazin-7-yl)-5-cyano-3,4-dihydroxytetrahydrofuran-2-yl)methyl ((1-(cyanomethyl)cyclopropyl)methyl) carbonate]
EC50 [9]: 2200 nM | EC50 [1, 11]: 8820 nM | EC50 [2, 12]: 2190 nM | CC50 [3]: > 50000 nM | half-life at 2 µM [4]: 2.98 min | STA Human Plasma 37 [5]: 40.7 | DM Caco2 A to B [6]: 0.07 | DM Caco2 B to A [6]: 1.91 | logD [10]: 0.9

N#C[C@@]1(c2ccc3c(N)ncnn23)O[C@H](COC(=O)OCC2(C(F)(F)F)CC2)[C@@H](O)[C@H]1O [Compound 120, ((2R,3S,4R,5R)-5-(4-aminopyrrolo[2,1-f][1,2,4]triazin-7-yl)-5-cyano-3,4-dihydroxytetrahydrofuran-2-yl)methyl ((1-(trifluoromethyl)cyclopropyl)methyl) carbonate]
EC50 [9]: 816 nM | EC50 [1, 11]: 1410 nM | EC50 [2, 12]: 1260 nM | CC50 [3]: > 50000 nM | half-life at 2 µM [4]: 0.605 min | STA Human Plasma 37 [5]: 38.7 | DM Caco2 A to B [6]: 0.77 | DM Caco2 B to A [6]: 8.35 | logD [10]: 1.6

N#CC12CC(COC(=O)OC[C@H]3O[C@@](C#N)(c4ccc5c(N)ncnn45)[C@H](O)[C@@H]3O)(C1)C2 [Compound 121, ((2R,3S,4R,5R)-5-(4-aminopyrrolo[2,1-f][1,2,4]triazin-7-yl)-5-cyano-3,4-dihydroxytetrahydrofuran-2-yl)methyl ((3-cyanobicyclo[1.1.1]pentan-1-yl)methyl) carbonate]
EC50 [9]: 1510 nM | EC50 [1, 11]: 7970 nM | EC50 [2, 12]: 1560 nM | CC50 [3]: > 50000 nM | half-life at 2 µM [4]: 1.58 min | STA Human Plasma 37 [5]: 107.7 | DM Caco2 A to B [6]: 0.08 | DM Caco2 B to A [6]: 4.15 | logD [10]: 1.1

CC1(COC(=O)OC[C@H]2O[C@@](C#N)(c3ccc4c(N)ncnn34)[C@H](O)[C@@H]2O)CCCC1 [Compound 123, ((2R,3S,4R,5R)-5-(4-aminopyrrolo[2,1-f][1,2,4]triazin-7-yl)-5-cyano-3,4-dihydroxytetrahydrofuran-2-yl)methyl ((1-methylcyclopentyl)methyl) carbonate]
EC50 [9]: 720 nM | EC50 [1, 11]: 1160 nM | EC50 [2, 12]: 1810 nM | CC50 [3]: > 50000 nM | half-life at 2 µM [4]: 0.615 min | STA Human Plasma 37 [5]: 96.5 | DM Caco2 A to B [6]: 3.18 | DM Caco2 B to A [6]: 9.88 | logD [10]: 2.2

CCCCCCCCCCOC(=O)OC[C@H]1O[C@@](C#N)(c2ccc3c(N)ncnn23)[C@H](O)[C@@H]1O [Compound 124, ((2R,3S,4R,5R)-5-(4-aminopyrrolo[2,1-f][1,2,4]triazin-7-yl)-5-cyano-3,4-dihydroxytetrahydrofuran-2-yl)methyl decyl carbonate]
EC50 [9]: 723 nM | EC50 [1, 11]: 1140 nM | EC50 [2, 12]: 625 nM | CC50 [3]: 27600 nM | half-life at 2 µM [4]: 0.744 min | STA Human Plasma 37 [5]: 192.3 | DM Caco2 A to B [6]: 0.08 | DM Caco2 B to A [6]: 7.35 | logD [10]: 3.7

N#C[C@@]1(c2ccc3c(N)ncnn23)O[C@H](COC(=O)OC23CC4CC(CC(C4)C2)C3)[C@@H](O)[C@H]1O [Compound 154, (3S,5S,7S)-adamantan-1-yl (((2R,3S,4R,5R)-5-(4-aminopyrrolo[2,1-f][1,2,4]-triazin-7-yl)-5-cyano-3,4-dihydroxytetrahydrofuran-2-yl)methyl) carbonate]
EC50 [9]: 11700 nM | EC50 [1, 11]: 34000 nM | EC50 [2, 12]: 11000 nM | CC50 [3]: > 50000 nM | half-life at 2 µM [4]: 279 min | STA Human Plasma 37 [5]: 1584 | DM Caco2 A to B [6]: 2.08 | DM Caco2 B to A [6]: 14.67 | logD [10]: 2.6

CC1=CCC(C(C)(C)OC(=O)OC[C@H]2O[C@@](C#N)(c3ccc4c(N)ncnn34)[C@H](O)[C@@H]2O)CC1 (stereo partly drawn) [Compound 155, ((2R,3S,4R,5R)-5-(4-aminopyrrolo[2,1-f][1,2,4]triazin-7-yl)-5-cyano-3,4-dihydroxytetrahydrofuran-2-yl)methyl (2-(4-methylcyclohex-3-en-1-yl)propan-2-yl) carbonate]
EC50 [9]: 1570 nM | EC50 [1, 11]: 3190 nM | EC50 [2, 12]: 1120 nM | CC50 [3]: > 50000 nM | half-life at 2 µM [4]: 77.5 min | STA Human Plasma 37 [5]: 1584 | DM Caco2 A to B [6]: 3.06 | DM Caco2 B to A [6]: 10.35 | logD [10]: 2.8
